# In patent publication US4871109A (priority 1988, dated 1989):
# What was measured:
# [1] = tested on: rats; settings: rat, in vivo
# [2] = in vivo; settings: rat
smiles,measurement,setting,value
"FC(F)(F)OC(F)(F)C(F)(F)OC(F)(F)C(F)(F)OC(F)(F)C(F)(F)OC(F)(F)C(F)(F)OC(F)(F)C(F)(F)OC(F)(F)C(F)(F)OC(F)(F)C(F)(F)OC(F)(F)F [PFHG, 1,1,1,3,3,4,4,6,6,7,7,9,9,10,10,12,12,13,13,15,15,16,16,18, 18,19,19,21,21,22,22,24,24,24-tetratriacontafluoro-2,5,8,11, 14,17,20,23-octaoxatetetracosane]",toxicity (in words),[1],essentially nontoxic
same,LD50,[2],> 10000 mg/kg
